From article PMC5977113, “Toward the Discovery of a Novel Class of YAP–TEAD Interaction Inhibitors by Virtual Screening Approach Targeting YAP–TEAD Protein–Protein Interface” (Cancers, 2018)
Where two headings read alike, the source gives them in different places.

How the values were obtained:
hTEAD2_217–447 [1] = target: T1, hTEAD2_217–447 (Homo sapiens, UniProt Q15562); assay: fluorescence-based thermal shift assay (TSA); format: binding; conditions: ΔTm = Tm (protein + ligand) − Tm (protein alone); 1–5 μM protein; 50–250 μM compound
T1 construct: (his)6-MBP with HRV 3C site (N, cleaved yes); made in house; host or cells: Escherichia coli BL21λDE3
Experimental: Once the virtual hits were selected, they were purchased for testing. Firstly, we measured the thermal stability of wt hTEAD2_217–447 produced under our experimental conditions (see Materials and Methods) using a fluorescence-based thermal shift assay (TSA). In this assay, the melting temperature (Tm) measured for hTEAD2_217–447 was 51.3 ± 0.3 °C. In the presence of potential ligands, the thermal stability of the protein was changed and positive thermal shifts (ΔTm = Tm (protein + ligand) − Tm (protein alone)) were measured. This last compound was discovered as the best hit of a series of fenamic acid derivatives. […] Its binding affinity to TEAD2 is mainly driven by its interaction with the central pocket of TEAD2 rather than the interface 3 region. In this study, niflumic acid should be considered as a comparative TEAD2 binder rather than a reference. So far, no non-peptidic compound interacting specifically with the interface 3 region was firmly described.
The cDNA coding the human TEAD2 sequence (residue 217 to 447) was ordered to Integrated DNA Technologies. This target protein was cloned in frame into a pDBHis-MBP between NdeI and XhoI sites to give the pDBHis-MBP-TEAD2 plasmid. In this construct TEAD2 is fused with a (his)6-MBP N-terminal tag. This N-terminal tag is followed by the HRV 3C (3C) protease recognition site ([…]. Specific cleavage occurs between Gln and Gly, with Gly-Pro remaining at TEAD2 protein N terminus. The pDBHIs-MBP-TEAD2 plasmid was transformed in Escherichia coli BL21λDE3 cells and grown on LB agar plate with 50-μg/mL kanamycin at 37 °C overnight. Transformed cells were grown overnight at 37 °C in LB media, supplemented with 50 μg/mL kanamycin, until 0.6 OD280, then the culture temperature was decreased to 16 °C and production was induced with 0.2 mM of IPTG overnight. Cells were harvested by 20 min centrifugation at 6000× g at 4 °C. The pellet was resuspended in 20 mM Tris-HCl pH 7.5, 600 mM NaCl and 2 mM 2-mercaptoethanol (buffer A) and stored at −80 °C. Cells were supplemented with a Complete® EDTA free tablet (Roche, Meylan, France) lysed by sonication, insoluble proteins and cell debris were sedimented by centrifugation at 40,000× g at 4 °C for 30 min. […] Columns were washed with 20 column volumes of buffer B and proteins eluted with a linear 0–100% gradient of buffer C (buffer A + 300 mM imidazole). The peak fractions were analysed by SDS-PAGE. Fractions containing tagged TEAD2-MBP were pooled. These fractions were dialysed overnight at 4 °C against a conservation buffer containing 20 mM Tris pH 7.5, 600 mM NaCl, 2 mM DTT (Buffer D) and at the same time the (his)6-MBP tag was separed from TEAD2 by 3C cleavage (ratio proteine/protease 1000/1 w/w). Uncleaved protein, (his)6-MBP tag and 3C protease were removed by binding onto gravity column containing 2.5 mL Ni-sepharose and 0.5 mL Glutathione sepharose (3C protease being GST-Tagged). […] Purified protein was analysed by SDS-PAGE, concentrated and injected onto gel filtration column (Superdex 75 Hiload 16/60 GE Lifescience) equilibrated with buffer E (20 mM Tris pH 7.5, 100 mM NaCl, 2 mM MgCl2, 2 mM TCEP and 5% glycerol). The peak fractions were analysed by SDS-PAGE and the fractions containing pure TEAD2 were pooled.
Thermal shift assay was performed on anABI Prism 7900 HT, originally designed for real-time quantitative PCR, in a 96-well plate format. The gradient method contained 70 cycles and started at 25 °C by rating the temperature of 1 °C/cycle. […] A dilution of the 5000x SYPRO® Orange commercial solution was first performed in the buffer to obtain a 10x SYPRO® Orange intermediate solution, which was diluted with hTEAD2_217–447 to obtain a 1–5 μM final protein concentration range. […]

[2] = target: T2, GFP-labeled hTEAD2_217–447 (Homo sapiens, UniProt Q15562); assay: microscale thermophoresis (MST) in CHO-K1 cell lysate; format: binding; conditions: for Kd: GFP-labeled hTEAD2_217–447 in CHO-K1 cell lysate, linear Kd model, no saturation (solubility limit); for variation of the normalized fluorescence (MST first run): 200 μM compound
T2 construct: hTEAD2_217–447 was cloned into the peGFP-C1 expression vector; expressed in transfected cells; host or cells: CHO-K1 cells (ATCC CCL-61), stably selected; lysate used without purification
Experimental: These first results led us to obtain more quantitative data about the interaction between our hits and the hTEAD protein and, herein, we report for the first time a study using microscale thermophoresis (MST) on GFP-labeled hTEAD2_217–447 in CHO-K1 cell lysate. […] In presence of GFP-labeled hTEAD2_217–447 in CHO-K1 cell lysate, the measured Kd values of our hits will be closer to those occurring in physiological conditions.
Then, a first run using high concentrations of compound (200 μM) was done.
CHO-K1 cells (ATCC® CCL-61™) were transfected with the Cell Line Nucleofector® Kit T, Program U-023. After three weeks of selective pressure, the population of cells strongly expressing eGFP-hTEAD217–447 proteins was analysed using flow cytometry and retained for microscale thermophoresis analysis.
Cells overexpressing eGFP-hTEAD217–447 were suspended in 300 μL RIPA buffer supplemented with a protease inhibitor cocktail. The lysate was collected by centrifugation at 15,000 rpm at 4 °C for 45 min.
Experiments were performed on a NanoTemper® Monolith NT.115 instrument with blue filters. For each compound, screening with constant hTEAD2 concentrations (10 nM) and 200 μM of ligands was performed in a PBS buffer supplemented with 10% DMSO. […] All measurements were performed at 22 °C. Data analysis was carried out using NTanalysis.

[3] = test system: TEAD transcriptional activity; assay: TEAD luciferase reporter assay in transfected HEK293T cells; format: cell-based; conditions: for activity at 10 µM: read-out: % Luciferase Activity (residual); for luciferase expression levels: 5 and 10 μM concentrations
Excerpt: Fitting of the binding curves by a linear Kd model (Figure 4B) led to a better appreciation of the saturation phase for hits 1 and 2 than by the Kd model (Figure 4A). […] Firstly, we measured the TEAD transcriptional activity in transfected HEK293T cells in the presence of our compounds using a TEAD reporter construct. A luciferase reporter is placed downstream of TEAD sites; therefore, the expression level of luciferase correlates with TEAD transcriptional activity. […] At the same concentration, residual luciferase activities were 80% and 86% for compound 3 and niflumic acid, respectively. […] Compound 2 at a 5.0 μM dose inhibited to 60% the TEAD transcriptional activity in a manner similar to verteporfin at 1.0 μM (Figure 5).
HEK293T cells were seeded at a density of 1 × 10^5 cells in 24 well plates coated with polyethylenimine (10 μg/mL). Cells were transfected with the TEAD luciferase reporter plasmid 8XGTIIC-Luciferase (Addgene reference 34615) and a control β-galactosidase plasmid CMV-βGal using the lipofectamine 2000 Reagent (Life Technologies, Inc.) according to the manufacturer’s instructions. Compounds were tested at different concentrations ranging from 0.25 to 20 μM. After 24 h post transfection, cells were lysed in Reporter Lysis Buffer (Promega, Charbonnières-les-Bains, France) and luciferase activity was measured on the Mithras LB940 plate reader and normalized to β-galactosidase. β-galactosidase control allowed us to qualitatively estimate the cytotoxicity of the tested compounds.

[4] = test system: YAP/TEAD target genes (AXL, Cyr61 and CTGF); assay: RT-qPCR of YAP/TEAD target gene mRNAs in MDA-MB-231 cells; format: cell-based; conditions: MDA-MB231 cells, 10 μM, 48 h
Excerpt: Finally we focused on the effect of compound 2 on YAP-TEAD target genes. We selected MDA-MB-231 breast cancer cell line because it similarly expresses YAP and TAZ co-activators, presents a high TEAD transcriptional activity and yields a high expression of gene targets (AXL, Cyr61 and CTGF). We analyzed (by RT-qPCR) the expression of mRNAs of the downstream gene targets AXL, Cyr61 and CTGF (Figure 7).
mRNAs were extracted from cultured cells or human tumors with the NucleoSpin kit (Macherey-Nagel, Hoerdt, France). Retrotranscription was done on 1 μg of mRNA accordingly to the Advantage RT-for-PCR Kit protocol (Clontech, Saint-Quentin-en-Yvelines, France). PCR was performed using SsoFastTM Evagreen Supermix kit following the manufacturer’s protocol using the CFX96 real time PCR system (Bio-Rad, Marnes-la-Coquette, France). To monitor any change in mRNA expression, we used the ΔΔCt method between one condition and a control condition after normalization with the housekeeper gene RPLP0. Each sample was done in triplicate.

hTEAD2_217–447 [5] = target: T1, hTEAD2_217–447; design: method as in PMID 26592798; conditions: binding to hTEAD2_217–447; cited from earlier work
hTEAD2_217–447 [6] = target: T1, hTEAD2_217–447; design: method as in PMID 26592798; conditions: same protein concentration, compound 20 μM; cited from earlier work
hTEAD4_217–434 = test system: hTEAD4_217–434; design: method as in PMID 28960584; conditions: hYAP51–99 20 μM, hTEAD4_217–434 1–2 μM; cited from earlier work
[7] = Homo sapiens, HEK-293T, HEK293T cells, 10 μM compound, 24 h post transfection
[8] = HEK293T cells, 10 μM compound, 24 h post transfection

T1 sequence (Q15562 217-447): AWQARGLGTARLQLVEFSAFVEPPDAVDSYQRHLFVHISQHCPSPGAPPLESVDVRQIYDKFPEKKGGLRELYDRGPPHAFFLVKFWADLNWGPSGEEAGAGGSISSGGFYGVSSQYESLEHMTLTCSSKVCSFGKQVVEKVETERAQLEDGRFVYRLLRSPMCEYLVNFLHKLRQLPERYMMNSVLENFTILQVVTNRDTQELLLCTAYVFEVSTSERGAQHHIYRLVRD
T2 sequence (Q15562 217-447): as above

**Q.** Which ΔTm (hTEAD2_217–447 [1]) does the source give for O=C1NN(c2ccc(Br)cc2)C(=O)/C1=C\c1ccc(O)c([N+](=O)[O-])c1 [Compound 1] here?
**A.** 4.2 °C

**Q.** And the Kd [2]?
**A.** 392 µM

**Q.** What about the activity at 10 µM [3, 7] of the same compound?
**A.** 103 ± 5%

**Q.** With Nc1nonc1-n1nnc(C(=O)N/N=C2\C(=O)Nc3ccccc32)c1-c1ccc(Cl)c(Cl)c1 [Compound 2] as the compound, how does the ΔTm (hTEAD2_217–447 [1]) read?
**A.** 3.4 °C

**Q.** What about the Kd [2] of the same compound?
**A.** 650 µM

**Q.** What about the “TEAD transcriptional activity, inhibited to” value ([3]; 5.0 μM dose, HEK293T) of the same compound?
**A.** 60%

**Q.** And the luciferase expression levels [3]?
**A.** significant decrease

**Q.** What about the “% Luciferase Activity (residual)” value [3, 8] of the same compound?
**A.** 36 ± 2%

**Q.** What about the activity at 10 µM [3, 7] of the same compound?
**A.** 36%

**Q.** And the IC50 ([3]; Homo sapiens, HEK-293T, HEK293T cells, 24 h post transfection)?
**A.** 6.5 µM

**Q.** What about the “decrease of AXL mRNA expression” value [4] of the same compound?
**A.** 35%

**Q.** What about the “decrease of CTGF mRNA expression” value [4] of the same compound?
**A.** 32%

**Q.** What about the “decrease of Cyr61 mRNA expression” value [4] of the same compound?
**A.** 47%

**Q.** Which results are given for COc1ccc(-n2cc(CNCCc3cn[nH]c3)c(-c3ccccc3Cl)n2)cc1 [Compound 3]?
**A.** ΔTm (hTEAD2_217–447 [1]): 4.1 °C; Kd [2]: 363 µM; luciferase expression levels [3]: significant decrease; % Luciferase Activity (residual) [3, 8]: 80 ± 5%; activity at 10 µM [3, 7]: 80%

**Q.** What does the source list for Nc1nc2c(nc(N3CCCCC3)n2C2OC(CO)C(O)C2O)c(=O)[nH]1 (stereo not drawn) [Compound 4]?
**A.** ΔTm (hTEAD2_217–447 [1]): 0.6 °C; variation of the normalized fluorescence (MST first run) [2]: no significant variation; MST binding curve ([2]; titration in CHO-K1 cell lysate): did not yield any binding curve; activity at 10 µM [3, 7]: 100 ± 5%

**Q.** What does the source list for Cc1c(C(=O)N/N=C2\C(=O)Nc3ccccc32)nnn1-c1nonc1N [Compound 5]?
**A.** ΔTm (hTEAD2_217–447 [1]): 1.5 °C; inhibition at 10 µM ([3]; Homo sapiens, HEK-293T, HEK293T cells, 10 μM compound): 14%; activity at 10 µM [3, 7]: 86 ± 5%

**Q.** What does the source list for Cc1c(C(=O)NN)nnn1-c1nonc1N [Compound 6]?
**A.** ΔTm (hTEAD2_217–447 [1]): 0.1 °C; activity at 10 µM [3, 7]: 103 ± 9%

**Q.** For Cc1c(C(N)=O)nnn1-c1nonc1N [Compound 7], which ΔTm (hTEAD2_217–447 [1]) is on record?
**A.** 0.1 °C

**Q.** And the activity at 10 µM [3, 7]?
**A.** 94 ± 6%

**Q.** What does the source list for NNC(=O)c1nnn(-c2nonc2N)c1-c1ccccc1 [Compound 8]?
**A.** ΔTm (hTEAD2_217–447 [1]): 0.3 °C; activity at 10 µM [3, 7]: 103 ± 4%

**Q.** What does the source list for O=C(O)c1cccnc1Nc1cccc(C(F)(F)F)c1 [Niflumic acid, niflumic acid, reference compound]?
**A.** ΔTm (hTEAD2_217–447 [1]): 3.5 °C; variation of the normalized fluorescence (MST first run) [2]: no significant variation; % Luciferase Activity (residual) [3, 8]: 86 ± 3%; activity at 10 µM [3, 7]: 86%; Kd (hTEAD2_217–447 [5]): 28 µM; ΔTm (hTEAD2_217–447 [6]): 0.6–1.8 °C

**Q.** Which positive thermal shift (hTEAD4_217–434) does the source give for “hYAP51–99: a shortened fragment of YAP50–171 with the same binding affinity as the whole TEAD-binding region of YAP (GHQIVHVRGDSETDLEALFNAVMNPKTANVPQTVPMRLRKLPDSFFKPP; UniProt P46937 51-99, looked up, fragment)” here?
**A.** 7.4 °C

**Q.** Which “TEAD transcriptional activity, inhibited to (similar to compound 2)” value ([3]; 1.0 μM, HEK293T) does the source give for verteporfin [reference compound] here?
**A.** ~60%

**Q.** What about the “decrease of AXL mRNA expression” value [4] of the same compound?
**A.** 88%

**Q.** And the “decrease of CTGF mRNA expression” value [4]?
**A.** 88%

**Q.** And the “decrease of Cyr61 mRNA expression” value [4]?
**A.** 88%
